In ChEMBL document CHEMBL3751759, “TRPA1 channels as targets for resveratrol and related stilbenoids” (Bioorg Med Chem Lett, 2016):

Key:
[1] = biological target: T1, Transient receptor potential cation channel subfamily A member 1 (Rattus norvegicus, UniProt Q6RI86); test: Agonist activity at rat TRPA1 expressed in HEK293 cells assessed as induction of intracellular calcium level; format: cell-based
[2] = biological target: T2, Transient receptor potential cation channel subfamily V member 1 (Homo sapiens, UniProt Q8NER1); test: Antagonist activity at human TRPV1 expressed in HEK293 cells assessed as inhibition of […]-induced increase of intracellular calcium level; format: cell-based
[3] = biological target: T1, Transient receptor potential cation channel subfamily A member 1; test: Antagonist activity at rat TRPA1 expressed in HEK293 cells assessed as inhibition of allyl isothiocyanate-induced increase of intracellular calcium level; format: cell-based
[4] = biological target: Transient receptor potential cation channel subfamily A member 1 (Rattus norvegicus) (UniProt Q6RI86); test: Agonist activity at rat TRPA1 expressed in HEK293 cells assessed as induction of intracellular calcium level relative to allyl isothiocyanate; format: cell-based
[5] = biological target: T2, Transient receptor potential cation channel subfamily V member 1; test: Agonist activity at human TRPV1 expressed in HEK293 cells assessed as induction of intracellular calcium level relative to […]; format: cell-based
[6] = biological target: T2, Transient receptor potential cation channel subfamily V member 1; test: Antagonist activity at human TRPV1 expressed in HEK293 cells; format: cell-based
[7] = biological target: T2, Transient receptor potential cation channel subfamily V member 1; test: Antagonist activity at human TRPV1 expressed in HEK293 cells assessed as inhibition of capsaicin-induced increase of intracellular calcium level; format: cell-based
[8] = biological target: T2, Transient receptor potential cation channel subfamily V member 1; test: Antagonist activity at TRPV1 (unknown origin) in DRG neurons
[9] = biological target: T1, Transient receptor potential cation channel subfamily A member 1; test: Agonist activity at rat TRPA1 expressed in HEK293 cells assessed as induction of intracellular calcium level in presence of AITC; format: cell-based
[10] = biological target: T1, Transient receptor potential cation channel subfamily A member 1; test: Antagonist activity at rat TRPA1 expressed in HEK293 cells assessed as inhibition of AITC-induced increase of intracellular calcium level; format: cell-based
[11] = biological target: Transient receptor potential cation channel subfamily A member 1 (Homo sapiens, UniProt O75762); test: Antagonist activity at human TRPA1 expressed in HEK293 cells assessed as inhibition of allyl isothiocyanate-induced increase of intracellular calcium level; format: cell-based
Transient receptor potential cation channel subfamily A member 1 (Homo sapiens, UniProt O75762), sequence (O75762 whole entry): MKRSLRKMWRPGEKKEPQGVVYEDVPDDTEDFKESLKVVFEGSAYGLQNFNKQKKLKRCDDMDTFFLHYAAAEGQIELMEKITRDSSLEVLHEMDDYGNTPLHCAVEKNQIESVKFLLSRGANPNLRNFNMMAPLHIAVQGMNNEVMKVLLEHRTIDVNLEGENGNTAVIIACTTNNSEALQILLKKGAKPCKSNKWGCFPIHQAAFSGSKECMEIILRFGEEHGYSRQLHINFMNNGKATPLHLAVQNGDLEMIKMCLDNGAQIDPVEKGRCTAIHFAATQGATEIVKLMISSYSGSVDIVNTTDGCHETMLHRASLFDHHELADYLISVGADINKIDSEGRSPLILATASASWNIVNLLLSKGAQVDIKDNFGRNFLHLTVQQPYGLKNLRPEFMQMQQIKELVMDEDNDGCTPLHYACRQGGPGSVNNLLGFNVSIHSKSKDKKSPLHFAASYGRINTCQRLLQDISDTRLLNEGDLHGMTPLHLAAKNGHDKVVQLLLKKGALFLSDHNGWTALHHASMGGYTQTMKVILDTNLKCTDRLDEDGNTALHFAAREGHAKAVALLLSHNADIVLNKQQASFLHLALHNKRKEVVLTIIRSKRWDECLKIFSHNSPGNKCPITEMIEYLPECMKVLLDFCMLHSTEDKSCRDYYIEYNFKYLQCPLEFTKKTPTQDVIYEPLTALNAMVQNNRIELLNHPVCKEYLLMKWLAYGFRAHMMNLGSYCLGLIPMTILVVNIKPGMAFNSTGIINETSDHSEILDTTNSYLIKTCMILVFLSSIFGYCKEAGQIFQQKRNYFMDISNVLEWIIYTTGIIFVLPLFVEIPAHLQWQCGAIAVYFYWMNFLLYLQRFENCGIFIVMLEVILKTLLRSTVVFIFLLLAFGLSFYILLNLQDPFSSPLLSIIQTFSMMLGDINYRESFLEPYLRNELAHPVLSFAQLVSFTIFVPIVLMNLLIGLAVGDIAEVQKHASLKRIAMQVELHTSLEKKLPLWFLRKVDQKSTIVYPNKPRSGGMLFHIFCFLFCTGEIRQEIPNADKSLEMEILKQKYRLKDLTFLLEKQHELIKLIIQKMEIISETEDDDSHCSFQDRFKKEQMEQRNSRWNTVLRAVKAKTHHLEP

T2 sequence (Q8NER1 whole entry): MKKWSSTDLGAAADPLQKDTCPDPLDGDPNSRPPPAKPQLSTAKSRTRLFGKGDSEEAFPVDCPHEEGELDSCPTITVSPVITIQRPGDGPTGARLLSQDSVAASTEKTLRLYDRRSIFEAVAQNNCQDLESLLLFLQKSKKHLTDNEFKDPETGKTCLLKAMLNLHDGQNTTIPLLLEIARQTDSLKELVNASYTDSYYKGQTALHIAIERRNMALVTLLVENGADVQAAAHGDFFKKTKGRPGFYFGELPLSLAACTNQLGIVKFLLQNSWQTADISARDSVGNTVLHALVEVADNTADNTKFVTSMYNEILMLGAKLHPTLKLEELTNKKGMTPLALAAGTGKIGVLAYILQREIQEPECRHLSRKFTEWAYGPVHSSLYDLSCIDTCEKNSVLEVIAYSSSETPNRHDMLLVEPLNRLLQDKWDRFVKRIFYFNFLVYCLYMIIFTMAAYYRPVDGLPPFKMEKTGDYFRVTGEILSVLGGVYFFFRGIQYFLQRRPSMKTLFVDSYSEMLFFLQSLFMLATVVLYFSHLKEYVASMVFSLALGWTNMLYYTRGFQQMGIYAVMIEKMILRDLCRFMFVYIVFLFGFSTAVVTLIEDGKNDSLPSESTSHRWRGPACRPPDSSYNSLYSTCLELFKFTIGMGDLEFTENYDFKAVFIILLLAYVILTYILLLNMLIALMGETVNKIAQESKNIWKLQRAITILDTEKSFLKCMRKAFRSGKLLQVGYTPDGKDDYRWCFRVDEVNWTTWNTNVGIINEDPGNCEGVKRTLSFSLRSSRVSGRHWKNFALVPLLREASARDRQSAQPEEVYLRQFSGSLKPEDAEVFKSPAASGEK
Transient receptor potential cation channel subfamily A member 1 (Rattus norvegicus), sequence (Q6RI86 whole entry): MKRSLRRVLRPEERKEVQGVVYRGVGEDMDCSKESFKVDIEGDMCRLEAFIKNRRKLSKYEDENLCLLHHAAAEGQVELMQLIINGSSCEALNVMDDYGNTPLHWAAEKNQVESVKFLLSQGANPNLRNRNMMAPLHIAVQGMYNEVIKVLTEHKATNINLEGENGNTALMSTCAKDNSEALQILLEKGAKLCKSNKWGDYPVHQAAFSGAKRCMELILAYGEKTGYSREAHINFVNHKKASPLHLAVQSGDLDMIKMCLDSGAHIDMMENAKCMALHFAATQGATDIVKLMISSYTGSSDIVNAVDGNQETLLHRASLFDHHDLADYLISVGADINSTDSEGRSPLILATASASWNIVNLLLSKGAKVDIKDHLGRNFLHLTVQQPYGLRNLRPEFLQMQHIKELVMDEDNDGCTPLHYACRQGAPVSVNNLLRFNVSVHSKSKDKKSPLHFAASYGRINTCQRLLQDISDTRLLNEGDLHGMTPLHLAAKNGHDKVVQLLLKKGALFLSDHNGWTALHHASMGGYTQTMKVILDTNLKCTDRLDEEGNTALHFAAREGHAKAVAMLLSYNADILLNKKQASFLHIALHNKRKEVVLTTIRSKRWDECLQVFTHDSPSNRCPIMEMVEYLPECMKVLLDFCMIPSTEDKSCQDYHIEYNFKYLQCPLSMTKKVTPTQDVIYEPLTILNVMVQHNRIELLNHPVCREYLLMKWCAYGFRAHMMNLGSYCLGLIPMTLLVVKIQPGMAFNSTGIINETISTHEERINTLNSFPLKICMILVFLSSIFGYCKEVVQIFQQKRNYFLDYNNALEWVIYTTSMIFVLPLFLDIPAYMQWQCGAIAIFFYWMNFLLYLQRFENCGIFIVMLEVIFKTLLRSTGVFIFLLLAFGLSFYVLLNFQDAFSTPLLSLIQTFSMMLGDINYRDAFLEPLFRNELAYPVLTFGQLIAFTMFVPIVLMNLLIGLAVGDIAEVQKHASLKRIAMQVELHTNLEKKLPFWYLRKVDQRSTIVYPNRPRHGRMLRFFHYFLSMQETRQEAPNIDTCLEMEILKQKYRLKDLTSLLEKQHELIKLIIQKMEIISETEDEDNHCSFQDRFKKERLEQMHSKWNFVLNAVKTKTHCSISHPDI
T1 sequence (Q6RI86 whole entry): as above

## Oc1cccc(/C=C/c2ccccc2)c1 [(E)-3-STILBENOL]
[1]
  EC50: 1.8 µM
[2]
  IC50: > 10 µM
[3]
  IC50: 3.4 µM
[4]
  Efficacy: 77.4%
[5]
  Efficacy: < 10%

## COc1cccc(/C=C/c2ccc(O)cc2)c1 [(E)-5-METHOXY-4'-STILBENOL]
[1]
  EC50: 6.6 µM
[2]
  IC50: > 10 µM
[3]
  IC50: 10.1 µM
[4]
  Efficacy: 41.8%
[5]
  Efficacy: < 10%

## COc1cc(O)cc(/C=C/c2ccccc2)c1 [PINOSYLVIN METHYL ETHER]
[6]
  IC50: 15 µM
[1]
  EC50: 3.5 µM
[2]
  IC50: > 10 µM
[7]
  IC50: 23.7 µM
[3]
  IC50: 6.9 µM
[4]
  Efficacy: 71.4%
[8]
  IC50: 30 µM
[5]
  Efficacy: < 10%

## COc1ccc(/C=C/c2cccc(OC)c2)cc1
[1]
  EC50: 1.5 µM
[2]
  IC50: > 10 µM
[3]
  IC50: 2.9 µM
[4]
  Efficacy: 75%
[5]
  Efficacy: < 10%

## COc1ccccc1/C=C/c1ccccc1
[1]
  EC50: 0.88 µM
[2]
  IC50: > 10 µM
[3]
  IC50: 1.7 µM
[4]
  Efficacy: 83.4%
[5]
  Efficacy: < 10%

## Oc1ccc(/C=C/c2cccc(O)c2)cc1 [(E)-3,4'-STILBENDIOL]
[1]
  EC50: 13.5 µM
[2]
  IC50: > 10 µM
[3]
  IC50: 16.5 µM
[4]
  Efficacy: 73.4%
[5]
  Efficacy: < 10%

## COc1cc(/C=C/c2ccccc2)cc(OC)c1 [3,5-O-DIMETHYLPINOSYLVIN]
[1]
  EC50: 1.7 µM
[2]
  IC50: > 10 µM
[3]
  IC50: 3.4 µM
[4]
  Efficacy: 84.1%
[5]
  Efficacy: < 10%

## COc1ccc(/C=C/c2ccc(OC)cc2)cc1
[1]
  EC50: 4.2 µM
[2]
  IC50: > 10 µM
[3]
  IC50: 10.6 µM
[4]
  Efficacy: 86.7%
[5]
  Efficacy: < 10%

## Oc1ccc(/C=C/c2cc(O)cc(O)c2)cc1 [RESVERATROL]
[9]
  IC50: 2.74 µM
[10]
  IC50: 0.75 µM
[3]
  IC50: 19.9 µM
[4]
  Efficacy: < 10%

## COc1cccc(/C=C/c2ccccc2)c1
[1]
  EC50: 1.7 µM
[2]
  IC50: > 10 µM
[3]
  IC50: 2.3 µM
[4]
  Efficacy: 101%
[5]
  Efficacy: < 10%

## CC(=O)Oc1ccc(/C=C/c2cc(OC(C)=O)cc(OC(C)=O)c2)cc1 [TRIACETYLRESVERATROL]
[1]
  EC50: 7.5 µM
[2]
  IC50: > 10 µM
[3]
  IC50: 11.8 µM
[4]
  Efficacy: 127%
[5]
  Efficacy: < 10%

## Oc1ccc(/C=C/c2ccc(O)cc2)cc1 [TRANS-4,4'-DIHYDROXYSTILBENE]
[1]
  EC50: 11 µM
[2]
  IC50: > 10 µM
[3]
  IC50: 25.2 µM
[4]
  Efficacy: 40%
[5]
  Efficacy: < 10%

## CC(=O)Oc1ccccc1/C=C/c1ccccc1
[1]
  EC50: 7.2 µM
[2]
  IC50: > 10 µM
[3]
  IC50: 8.6 µM
[4]
  Efficacy: 135%
[5]
  Efficacy: < 10%

## Oc1ccc(/C=C/c2ccccc2)cc1 [(E)-4-STYRYLPHENOL]
[1]
  EC50: 8.4 µM
[2]
  IC50: > 10 µM
[3]
  IC50: 5.5 µM
[4]
  Efficacy: 61.9%
[5]
  Efficacy: < 10%

## Oc1cc(O)cc(/C=C/c2ccccc2)c1 [PINOSYLVIN]
[2]
  IC50: > 10 µM
[3]
  IC50: 12.1 µM
[4]
  Efficacy: < 10%
[5]
  Efficacy: < 10%

## COc1ccc(/C=C/c2ccc(O)cc2)cc1
[1]
  EC50: 10.1 µM
[2]
  IC50: > 10 µM
[3]
  IC50: 10 µM
[4]
  Efficacy: 72.1%
[5]
  Efficacy: < 10%

## COc1ccc(/C=C/c2cc(OC)cc(OC)c2)cc1 [TRISMETHOXYRESVERATROL]
[1]
  EC50: 1.7 µM
[2]
  IC50: > 10 µM
[3]
  IC50: 3 µM
[4]
  Efficacy: 72.5%
[5]
  Efficacy: < 10%

## COc1cc(/C=C/c2ccc(O)cc2)cc(OC)c1 [PTEROSTILBENE]
[1]
  EC50: 3.6 µM
[2]
  IC50: > 10 µM
[3]
  IC50: 7.5 µM
[4]
  Efficacy: 71.1%
[5]
  Efficacy: < 10%

## Oc1ccccc1/C=C/c1ccccc1
[1]
  EC50: 0.58 µM
[2]
  IC50: > 10 µM
[3]
  IC50: 2.2 µM
[4]
  Efficacy: 88.4%
[5]
  Efficacy: < 10%

## CC(=O)Oc1ccc(/C=C/c2ccccc2)cc1
[1]
  EC50: 16.3 µM
[2]
  IC50: > 10 µM
[3]
  IC50: 29.4 µM
[4]
  Efficacy: 89.7%
[5]
  Efficacy: < 10%

## COc1ccc(/C=C/c2ccccc2)cc1
[11]
  IC50: 12.1 µM
[1]
  EC50: 2.4 µM
[2]
  IC50: > 10 µM
[3]
  IC50: 17.8 µM
[4]
  Efficacy: 49%
[5]
  Efficacy: < 10%
